In experiment [1] the test system is MLK3 SH3 domain. Nature of the experiment: analytical size-exclusion chromatography of MLK3 SH3-MIP fusion proteins (oligomeric state). It counts as binding, human. The note with it: Superdex 200 10/300 GL, 25 mM Tris-HCl, pH 7.4, 500 mM NaCl; for effect of mutation on binding to MLK3 SH3 (fusion proteins, gel filtration): 750 μg/200 μl (Fig. S4); for oligomeric state by size-exclusion chromatography: MIP(1–19) fusion 2 mg/200 μl, MIP(1–13) fusions 750 μg/200 μl. The source says:
Two DNA fragments encoding the SH3 domain of MLK3 (UniProt entry Q16584), MLK3 SH3(41–105) and MLK3 SH3(44–103), and four fragments encoding SH3 domain-MIP fusions, MLK3 SH3(41–105)-MIP(1–19), MLK3 SH3(41–105)-MIP(1–13), MLK3 SH3(41–105)-MIP(1–13)W10A, and MLK3 SH3(41–105)-MIP(1–13)R12A, were commercially prepared as gBlocks Gene Fragments. One fragment encoding SH3 domain fused to an NS5A (UniProt entry A0A076MER2) peptide, MLK3 SH3(41–105)-NS5A(2325–2332), was created by amplifying MLK3 SH3(41–105) with T7 promoter primer and a reverse primer (see Table S1). The subsequent insert contained MLK3 SH3(41–105) with the NS5A fragment (aa 2325–2332) at the C terminus. All coding regions were codon-optimized for E. coli expression. DNA fragments were cleaved with NdeI and BamHI-HF (New England Biolabs) and subsequently ligated into a modified version of the pET14b expression vector where the N-terminal His6 tag is followed by a SUMO protease cleavage site. The resulting DNA constructs (verified by sequencing) were transformed into E. coli strain BL21 C41(DE3). Cells were grown at 37 °C in 2× YT medium, which was supplemented with either 50 μg/ml CB or 100 μg/ml ampicillin, protein expression was induced with 0.1–0.3 mM IPTG at an A600 nm of 0.6–0.7, and cells were cultured overnight at 22 °C. Cells were harvested by centrifugation; washed with 200 mM KCl, 50 mM Tris, pH 7.4; and lysed by sonication in 25 mM Tris, pH 7.4, 200 mM KCl, 10 mM MgCl2, 10% glycerol, 1% Triton X-100, 1 mM phenylmethylsulfonyl fluoride (PMSF). Clarified supernatant was loaded onto a 5-ml HisTrap^TM HP Ni-Sepharose column (GE Healthcare), and the column was washed with 25 mM Tris, pH 7.4, 500 mM NaCl supplemented with 10 and 25 mM imidazole. Protein was eluted in the same buffer, which was supplemented with 250 and 500 mM imidazole, and the fractions were pooled together. The His6-SUMO tag was cleaved with SUMO protease while dialyzing against 25 mM Tris, pH 7.4, 500 mM NaCl, 10 mM imidazole, and the tag was removed by loading the sample back onto a nickel column. Collected fractions containing purified protein were concentrated and injected onto an S-200 size-exclusion column (GE Healthcare) equilibrated with 25 mM Tris-HCl, pH 7.4, 500 mM NaCl. To confirm the purity, collected samples were analyzed by SDS-PAGE and detected with Coomassie Brilliant Blue staining. All purified proteins were concentrated and stored at −80 °C.
To determine oligomeric state of several MLK3 SH3 fusion proteins, samples were injected into a Superdex 200 10/300 GL size-exclusion chromatography column (GE Healthcare) in two independent experiments. Two samples, MLK3 SH3(41–105)-MIP(1–19) and MLK3 SH3(41–105), at 2 mg of protein/200-μl injection, were analyzed in the first experiment (Fig. S3). Three additional samples of MLK3 SH3 domain-MIP fusion proteins were analyzed in a second experiment by injecting 750 μg of protein in 200 μl: MLK3 SH3(41–105)-MIP(1–13), MLK3 SH3(41–105)-MIP(1–13)W10A, and MLK3 SH3(41–105)-MIP(1–13)R12A (Fig. S4). Prior to the injections, the column was equilibrated with 25 mM Tris-HCl, pH 7.4, 500 mM NaCl.
Figure S3. Comparison of apo vs peptide-bound MLK3 SH3. Gel filtration chromatography of MLK3 SH3 and MLK3 SH3-MIP(1-19) fusion using Superdex 200 10/300 GL. Both constructs were expressed and purified as His6-SUMO fusions and the tag cleaved with SUMO protease. […] PS corresponds to MW standards (kDa).
Figure S4. W10 and R12 in MIP are critical for intermolecular interaction with MLK3 SH3 in vitro. Three fusion proteins composed of MLK3 SH3(41-105) domain linked via its C-terminus to one of the MIP variant: MIP(1-13) (Blue), MIP(1-13)W10A (Red), or MIP(1-13)R12A (Green), and have been analyzed using gel filtration chromatography. Corresponding sequences of MIP variants are: […] (Blue), […] (Red), and […] (Green). […] The chromatogram corresponding to MLK3 SH3 (Orange) was scaled down by approximately 33%. […]
A general note: Size exclusion chromatography separates by hydrodynamic size, large species first.

Experiment [2] relates to GST-MLK1 SH3. The experiment in a line: specificity ELISA, MLK1. It counts as binding, human. The note with it: biotinylated peptide ≈2 μM on NeutrAvidin; GST-SH3 0.15 μM, 1–1.5 h; anti-GST-HRP; triplicate (Fig. 8). As to the method:
(§1) Figure 8. Binding of MIP and NS5A peptides to SH3 domain of other members of MLK subfamily (MLK1–4). To determine whether MIP and NS5A can interact with SH3 domains of MLK1–4 proteins, the purified GST-MLK1–4 SH3 domains were incubated with biotinylated peptides, NS5A peptide ([…]-GGG-K-biotin), MIP ([…]-K-biotin), and MIP-R12A ([…]-K-biotin), immobilized on a NeutrAvidin-coated 96-well ELISA plate. Binding of SH3 domain was detected with anti-GST antibody conjugated to HRP. […] See also Fig. S6.
(§2) Two plasmids, gifts from Dr. Gerardo Morfini, University of Illinois at Chicago, encoding a GST protein fused to either the WT or mutant Y52A of the SH3 domain of MLK3 (UniProt entry Q16584; aa 43–104), respectively, between BamHI and EcoRI sites, were transformed into the Escherichia coli strain Rosetta(DE3)pLysS. DNA fragments encoding the SH3 domain of MLK1 (UniProt entry P80192; aa 52–116), MLK2 (UniProt entry Q02779; aa 16–81), and MLK4 (UniProt entry Q5TCX8; aa 38–102) were commercially prepared as gBlocks® Gene Fragments (Integrated DNA Technologies, Inc.). All coding regions were codon-optimized for E. coli expression. DNA fragments were cleaved with BamHI-HF® and EcoRI-HF® (New England Biolabs) and subsequently ligated into pGex-2T vector. […]
In general terms: An ELISA detects its analyte on a solid surface through an enzyme-linked reagent.

The subject of experiment [3] is GST-MLK4 SH3. The experiment in a line: specificity ELISA, MLK4. In kind it is binding, human. The settings on record: biotinylated peptide ≈2 μM on NeutrAvidin; GST-SH3 0.15 μM, 1–1.5 h; anti-GST-HRP; triplicate (Fig. 8). As to the method: as §1, §2
Experiment [4] concerns MLK3 SH3 domain Y52A. Nature of the experiment: binding to Y52A mutant of MLK3 SH3. On the set-up: species or system human. The note with it: data not shown. An excerpt: Two plasmids, gifts from Dr. Gerardo Morfini, University of Illinois at Chicago, encoding a GST protein fused to either the WT or mutant Y52A of the SH3 domain of MLK3 (UniProt entry Q16584; aa 43–104), respectively, between BamHI and EcoRI sites, were transformed into the Escherichia coli strain Rosetta(DE3)pLysS. DNA fragments encoding the SH3 domain of MLK1 (UniProt entry P80192; aa 52–116), MLK2 (UniProt entry Q02779; aa 16–81), and MLK4 (UniProt entry Q5TCX8; aa 38–102) were commercially prepared as gBlocks® Gene Fragments (Integrated DNA Technologies, Inc.). All coding regions were codon-optimized for E. coli expression. DNA fragments were cleaved with BamHI-HF® and EcoRI-HF® (New England Biolabs) and subsequently ligated into pGex-2T vector. The resulting DNA constructs, pGex-MLK1 SH3, pGex-MLK2 SH3, and pGex-MLK4 SH3 (verified by sequencing) were transformed into E. coli strain BL21(DE3).

Experiment [5] relates to GST-MLK2 SH3. Nature of the experiment: specificity ELISA, MLK2. In kind it is binding, human. The settings on record: biotinylated peptide ≈2 μM on NeutrAvidin; GST-SH3 0.15 μM, 1–1.5 h; anti-GST-HRP; triplicate (Fig. 8). As to the method: as §1, §2
The subject of experiment [6] is GST-MLK3 SH3. The experiment in a line: specificity ELISA, MLK3. In kind it is binding, human. The settings on record: biotinylated peptide ≈2 μM on NeutrAvidin; GST-SH3 0.15 μM, 1–1.5 h; anti-GST-HRP; triplicate (Fig. 8). The protocol:
as §1, §2

Experiment [7] relates to GST-MLK3 SH3. The experiment in a line: phage ELISA of phage-displayed MIP and variants on GST-MLK3 SH3. The settings on record: original clone/MIP, anti-M13 mAb-HRP detection, experiments in duplicate, averaged. It counts as binding, human. As to the method:
Figure 1. […] The presence of virions in the supernatant was determined by coating the wells of the microtiter plate with an anti-M13 mAb (anti-M13 Ab). Virions, which were retained in the microtiter plate wells, were detected with anti-M13 mAb conjugated to HRP. […] See also Fig. S1.
Figure 2. […] The MIP sequence, NH2-[…]-COOH, was fused to the N terminus of the pIII capsid protein of bacteriophage M13 ([51]) to facilitate type 3 pentavalent display. Systematic alanine replacements in the peptide were generated by Kunkel mutagenesis ([11]); Ala-1 and Ala-14 were replaced with Val. […] The signal for binding of MIP (WT) to GST-MLK3 SH3 is set as 100%, and other values are normalized to it. […] See also Fig. S2.
Screens for peptide ligands were performed following a protocol published previously ([11]). […] After three rounds of affinity selection, individual phage clones were isolated, and their binding was evaluated via phage ELISA ([11]). […]
All constructs were generated via Kunkel mutagenesis ([11], [57], [58]) and facilitated type 3 (pentavalent) display. […] All constructs were verified by DNA sequencing, and phage clones were evaluated for their binding to the target (GST-MLK3 SH3) via phage ELISA ([11]). […]

In experiment [8] the target is T1, GST-MLK4 SH3 (UniProt Q5TCX8 38-102).
T1 construct: also called SH3 domain of MLK4
T1 sequence (looked up): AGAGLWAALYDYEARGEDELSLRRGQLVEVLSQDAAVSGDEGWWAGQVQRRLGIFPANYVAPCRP
The experiment in a line: ELISA. The settings on record: both partners purified.

Experiment [9] concerns the target T2, GST-MLK1 SH3 (UniProt P80192 52-116).
T2 construct: also called SH3 domain of MLK1
T2 sequence (looked up): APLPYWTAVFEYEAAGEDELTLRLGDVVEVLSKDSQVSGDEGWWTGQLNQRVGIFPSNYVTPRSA
The experiment in a line: ELISA. The note with it: both partners purified.

Experiment [10] addresses T3, GST-MLK3 SH3(43–104) (human, UniProt Q16584 43-104).
T3 construct: also called GST-MLK3 SH3-WT; SH3 WT
T3 sequence (looked up): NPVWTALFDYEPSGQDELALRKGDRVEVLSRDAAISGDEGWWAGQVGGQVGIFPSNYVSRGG
The experiment in a line: ELISA. The note with it: both partners purified.

No end group written: not given here.

As to “AIRINPNGTASRQ [MIP(1–13)W10A, SH3 domain linked via its C terminus to MIP(1–13)W10A]”, in experiment [1], the “effect of mutation on binding to MLK3 SH3 (fusion proteins, gel filtration)” value is “loss of binding to MLK3 SH3” and the “oligomeric state by size-exclusion chromatography” value (shortened to “oligomeric state”) is “elute at a volume corresponding to the size of a monomeric fusion protein”. In [1] (listed as MIP(1-13)W10A), the “oligomeric state” value was “elute at fraction corresponding to the size of a monomeric fusion protein”.
Take “AIRINPNGTWSRQ [MLK3 SH3(41–105)-MIP(1–13), SH3 domain linked via its C terminus to truncated WT ligand]”: the “oligomeric state” value in experiment [1] was “eluted as a higher order oligomer”.
Turning to “AIRINPNGTWSAQ [MIP(1–13)R12A, SH3 domain linked via its C terminus to MIP(1–13)R12A]”, the “effect of mutation on binding to MLK3 SH3 (fusion proteins, gel filtration)” value in experiment [1] is given as “loss of binding to MLK3 SH3”. The results for the “oligomeric state” value in [1] and in experiment [1] (listed as MIP(1-13)R12A) were “elute at a volume corresponding to the size of a monomeric fusion protein” and “elute at fraction corresponding to the size of a monomeric fusion protein”, respectively.
Regarding “KKAPTPPPRRRRGGGK [NS5A peptide, reference compound]”, the “binding to MLK1 SH3” value in experiment [2] is recorded as “could bind”. Further, the “binding to MLK4 SH3” value in [3] is listed as “could bind”. For the same molecule, the “effect of SH3 mutation Y52A on peptide binding” value in experiment [4] was “disrupts binding”. Moreover, the “binding to MLK2 SH3” value in experiment [5] was “could bind”. The “binding to MLK3 SH3” value in experiment [6] is reported as “could bind”.
Consider “H-IRINPNGTWSRQ-OH [single clone displaying a 12-mer peptide from ANL7 library]”, for which, in experiment [7], the “binding to GST-MLK3 SH3 in phage ELISA” value is given as “bound to the wildtype (WT) form of the MLK3 SH3 domain”.

B1: biotinylated MIP (AIRINPNGTWSRQAETVES-K-biotin) (peptide)
peptide: AIRINPNGTWSRQAETVESK
modifications: biotin on the added C-terminal K
notes: also called immobilized MIP; biotinylated MIP peptide; source: synthetic peptide
B1: the binding result in experiment [8], in [9] and in experiment [10] was “binds” each time.

(Values after article PMC6120190, “Identification of two distinct peptide-binding pockets in the SH3 domain of human mixed-lineage kinase 3” (The Journal of Biological Chemistry, 2018).)
